Consider three molecules from paper PMC2655144 (Biochemistry, 2008).

Molecules are shown by their SMILES. Several values for one entry are separate records, joined by “and”; a condition that tells them apart may be missing. Identical values can stand only once. Like-named read-outs stand apart in the source and are kept apart here.

One experiment concerns AChE. As to conditions: cited from earlier work; for i2 for thioflavin T with A-site ligand: ternary complex with thioflavin T.
The target of experiment [1] is free AChE (E), recombinant human AChE (Homo sapiens, UniProt P22303). As to conditions: cited from earlier work.
Sequence of free AChE (E), recombinant human AChE (P22303 32-614): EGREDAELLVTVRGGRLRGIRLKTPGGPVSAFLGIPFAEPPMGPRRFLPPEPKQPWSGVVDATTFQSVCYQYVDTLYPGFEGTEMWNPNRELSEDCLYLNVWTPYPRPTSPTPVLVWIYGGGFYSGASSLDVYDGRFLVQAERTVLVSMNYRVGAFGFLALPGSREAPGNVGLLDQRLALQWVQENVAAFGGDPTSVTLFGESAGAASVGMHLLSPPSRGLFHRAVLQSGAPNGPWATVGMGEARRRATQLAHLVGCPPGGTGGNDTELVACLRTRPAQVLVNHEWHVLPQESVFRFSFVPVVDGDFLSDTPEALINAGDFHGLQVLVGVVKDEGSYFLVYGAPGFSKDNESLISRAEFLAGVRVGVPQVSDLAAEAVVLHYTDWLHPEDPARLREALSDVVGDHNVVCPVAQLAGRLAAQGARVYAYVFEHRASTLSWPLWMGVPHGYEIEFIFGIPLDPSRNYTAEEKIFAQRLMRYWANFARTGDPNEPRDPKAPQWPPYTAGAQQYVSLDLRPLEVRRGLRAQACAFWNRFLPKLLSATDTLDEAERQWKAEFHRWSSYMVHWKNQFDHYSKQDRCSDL
The target in a further experiment is carbamoylated AChE (EC) (Homo sapiens, UniProt P22303). Nature of the experiment: Carbachol binding to carbamoylated AChE.
Sequence of carbamoylated AChE (EC) (P22303 32-574 limits assumed): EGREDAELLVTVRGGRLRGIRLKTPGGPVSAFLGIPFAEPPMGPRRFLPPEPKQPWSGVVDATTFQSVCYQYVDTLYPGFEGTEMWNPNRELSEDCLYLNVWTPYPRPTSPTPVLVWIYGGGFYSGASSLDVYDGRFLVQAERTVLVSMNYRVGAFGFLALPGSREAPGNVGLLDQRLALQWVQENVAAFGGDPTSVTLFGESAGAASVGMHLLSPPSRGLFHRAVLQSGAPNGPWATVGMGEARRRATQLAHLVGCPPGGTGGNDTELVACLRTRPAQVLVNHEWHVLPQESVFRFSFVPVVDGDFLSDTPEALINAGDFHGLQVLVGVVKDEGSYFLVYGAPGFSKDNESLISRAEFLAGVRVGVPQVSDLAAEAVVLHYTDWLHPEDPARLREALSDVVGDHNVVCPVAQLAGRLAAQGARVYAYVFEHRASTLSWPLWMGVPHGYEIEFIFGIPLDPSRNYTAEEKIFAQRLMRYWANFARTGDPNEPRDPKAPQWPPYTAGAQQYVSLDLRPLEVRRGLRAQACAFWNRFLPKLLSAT
For the next experiment, the target named is recombinant human AChE (Homo sapiens, UniProt P22303). It is filed as biochemical. As to conditions: for k12 + k21: 15.6 μM thioflavin T; for k122: two-component fit, minor component E2.
Sequence of recombinant human AChE (P22303 32-614): as the sequence (P22303 32-614) above
[2] abbreviates: maximum parameter range fit, i fixed at 1e-6.
Where [3] appears, read: maximum parameter range fit, iKs fixed at 12 mM.
The mark [4] stands for this setting: maximum parameter range fit, iEC fixed at 1e-6.
[5] abbreviates: maximum parameter range fit, iECKECS fixed at 8 mM.

With `CC(=O)Nc1cccc([N+](C)(C)C)c1` [ATMA, 3-(acetamido)-N,N,N-trimethylanilinium], the “i2 for propidium with A-site ligand” value in the experiment with AChE (ternary complex with propidium) was 9.5. Besides, in the experiment on AChE, the “i2 for thioflavin T with A-site ligand” value is reported as 3.1.

`C[N+](C)(C)CCOC(N)=O` [carbachol, carbamoylcholine chloride]: the values for the i in experiment [1] and in experiment [1] (setting [3]) were 0.92 and 1.59, respectively. The fEL/fESL in experiment [1] (setting [2]) was 1.50; in experiment [1] (setting [3]), 1.50; in experiment [1] (one-site fit, (iKS)^−1 fixed at 0), 1.85. In addition, the values for the i2 in experiment [1] (setting [2]) and in experiment [1] (setting [3]) were 1.08 and 0.42, respectively. Also, the Kd in experiment [1] (read-out: iKs, P-site in E, i2 fixed at 0.90) was 26000 ± 4000 µM; at carbamoylated AChE (EC) (KECM+S, combined binding to A- and P-sites in EC, iEC2 fixed at 0.90), 1700 ± 400 µM; at carbamoylated AChE (EC) (KECM+S, maximum parameter range fit, iEC fixed at 1e-6), 1660 µM; on carbamoylated AChE (EC) (KECM+S, maximum parameter range fit, iECKECS fixed at 8 mM), 1660 µM; at carbamoylated AChE (EC) (KECM, A-site in EC, iEC2 fixed at 0.90) it was 1800 ± 500 µM; at carbamoylated AChE (EC) (KECM, maximum parameter range fit, iEC fixed at 1e-6), 1660 µM. The Kd on carbamoylated AChE (EC) (iECKECS, P-site in EC, iEC2 fixed at 0.90) worked out at 32000 ± 2000 µM; at carbamoylated AChE (EC) (iECKECS, maximum parameter range fit, iEC fixed at 1e-6), 34000 µM. Also, the iEC turned out to be 1.23 at carbamoylated AChE (EC) and 3.5 on carbamoylated AChE (EC) (setting [5]). Moreover, the fECSL/fESL on carbamoylated AChE (EC) (for the three sets in Tables 1 and 2) turned out to be 1.14 ± 0.03. For the same molecule, at carbamoylated AChE (EC) (from fECL/fECSL), the “increase of fluorescence of bound thioflavin T when carbachol bound to the A-site in ternary complex with EC” value is “about 20%”. Further, the fECL/fECSL is 0.83 and 0.83 ± 0.01 at carbamoylated AChE (EC) (iEC2 fixed at 0.90); 0.83 at carbamoylated AChE (EC) (setting [4]); 0.83 at carbamoylated AChE (EC) (setting [5]). For the same molecule, the iEC2 is given as 0.96 on carbamoylated AChE (EC) (setting [4]) and 0.21 on carbamoylated AChE (EC) (setting [5]). The “k12 + k21” value on recombinant human AChE (1.67 mM carbachol, one-component fit (eq 6)) turned out to be 5.94 ± 0.02 min⁻¹; at recombinant human AChE (1.67 mM carbachol, two-component fit (eq A2)), 6.53 ± 0.02 min⁻¹; at recombinant human AChE (60 mM carbachol, one-component fit (eq 6)), 23.8 ± 0.3 min⁻¹; on recombinant human AChE (60 mM carbachol, two-component fit (eq A2)), 27.0 ± 0.4 min⁻¹. Further, the k122 was 0.68 ± 0.04 at recombinant human AChE (1.67 mM carbachol) and 4.3 ± 0.3 on recombinant human AChE (60 mM carbachol).

In the case of `CC[N+](C)(C)c1cccc(O)c1` [edrophonium], the “i2 for thioflavin T with A-site ligand” value with AChE was 1.12.
